Starred links: 1 amine or outer side, 2 acyl side, 3 side chain; linkers in the order of their positions; H or OH if unused. Positions of bridges follow the written chain, without caps; N, C: chain ends. Non-standard residues stand in square brackets, D forms with d. Residues, ends and D or L forms follow the SMILES beside them. No end group written: not given here. *: point of attachment. hTyr(3S-OH,4S-OH,3'-OSO3H) = N[C@H](C(=O)O)[C@H](O)[C@@H](O)c1ccc(O)c(OS(=O)(=O)O)c1; pTerphenylCO(4''-OnC5H11) = CCCCCOc1ccc(-c2ccc(-c3ccc(C(=O)*)cc3)cc2)cc1; Orn(4R-OH,5R-OH) = O=C([C@H](C[C@@H](O)[C@@H](O)N[*:3])N[*:1])[*:2]; hTyr(3S-OH,4S-OH) = N[C@H](C(=O)O)[C@H](O)[C@@H](O)c1ccc(O)cc1; Pro(3S-OH,4S-Me) = C[C@H]1CN[C@H](C(=O)O)[C@H]1O; X1 = CCCCCOc1ccc(-c2cc(-c3ccc(C(=O)*)cc3)no2)cc1; Gln(3R-OH) = NC(=O)C[C@@H](O)[C@H](N)C(=O)O; Hyp = O=C(O)[C@@H]1C[C@@H](O)CN1

The test system of data set [1] is C. albicans (ATCC10231, ATCC90028, ATCC90029). Set-up: key: R: resistant; S: susceptible; DD-S: Dose dependent-susceptible. The settings on record: ref ATCC; cited from earlier work. The text has this:
[…] T h re e times each experiment was repeated independently with similar results. Representative images are shown. (1 picture or pasted object on this page, not shown here)

The subject of data set [2] is E. coli (CMCC(B)44102). Description: Antibacterial activity, colony counting. Format: cell-based, Escherichia coli. As for the experimental part: (§1) The antibacterial effects of Ni-IH-7 were also evaluated with E. coli (CMCC(B)44102), S. aureus (ATCC 29213) and Methicillin-resistant Staphylococcus aureus (MRSA) (ATCC43300), G. vaginalis (ATCC14018) and metronidazole-resistant G. vaginalis (provided by Xishan People’s Hospital of Wuxi City) under the similar procedures as those for C. albicans. Initially, E. coli, S. aureus and MRSA stored at -80°C were thawed and inoculated into Luria-Bertani liquid culture medium for overnight shaking. The culture volume was 5 mL, and the incubation conditions were set at 37°C in an air incubator. The next day, E. coli, S. aureus and MRSA were transferred to fresh culture medium and incubated for 2 h to activate the bacteria. The inoculum was approximately 10^5-6 CFU mL^−1. The culture volume was 10 mL, and the conditions were maintained at 37 °C in an air incubator. The quantities of E. coli, S. aureus and MRSA could reach 10^7-8 CFU mL^−1. Mixtures of 100 µL of E. coli, S. aureus and MRSA with 100 µL of Ni-IH-7 solution were prepared in 800 µL of sterile water and incubated for 0–6 h. Subsequently, 100 µL of different dilutions of the mixture were evenly spread on Luria-Bertani agar plates, followed by incubation at 37 °C from 24 to 48 h, and colony counting assay was performed to determine antibacterial efficiency. Similarly, G. vaginalis stored at −80°C was thawed and inoculated into brain-heart infusion (BHI) medium. This BHI medium consisted of brain/heart infusion broth containing 1% gelatin, 1% yeast extract, 0.1% soluble starch, 0.1% glucose, and 10% fetal bovine serum, and the inoculation process occurred overnight. The volume of the medium used was 5 mL, and the incubation condition was set at 37 °C in an incubator with 5% CO2. Following an overnight incubation post-inoculation, the necessary amount of bacterial solution was taken and transferred into fresh medium at a ratio of 1:25. This fresh medium was then cultured at 37°C with 5% CO2 for 6–8 h until the OD600 reached approximately 0.5. Next, an appropriate quantity of the bacterial inoculum was centrifuged at 4300 × g for 5 min at 4 °C to replace the bacteria from the culture medium with an equivalent volume of sterile water. For the experimental setup, 100 µL of G. vaginalis was mixed with 900 µL of sterile water as the control group. In the experimental group, 100 µL of G. vaginalis was mixed with either Ni-IH-7 solutions, Ni(Ac)2, or metronidazole in 800 µL of sterile water. The colony counting assay was performed to determine antibacterial efficiency.

The test system of data set [3] is S. aureus (ATCC 29213). Description: Antibacterial activity, colony counting. Format: cell-based, Staphylococcus aureus. As for the experimental part:
as §1

In data set [4] the test system is G. vaginalis (ATCC14018). The experiment in a line: Antibacterial activity, colony counting. Type of data set: cell-based, Gardnerella vaginalis. The protocol: as §1
The nature of data set [5]: PLC-like activity (PLC activity Assay Kit). Type of data set: biochemical. The protocol:
To detect POD-like activity, 140 µL of sodium acetate buffer (pH 4.5, 0.2 M), 20 µL of 10 mM TMB, 20 µL of 1.5 mM Ni-IH-7 or 1.5 mM 4H2O·Ni(Ac)2, and 20 µL of H2O2 (50 mM) were added in order and reacted for 2 h at 37 °C. Absorbance at 652 nm was monitored using a microplate reader. PLC activity Assay Kit was used to detect PLC-like activity.

Data set [6] is described as follows: Variable temperature circular dichroism. Type of data set: physicochemical. Particulars: variable temperature CD, 20–95 °C. The protocol:
The Ultraviolet-visible (UV-VIS) spectroscopy of samples were collected by a Shimadzu UV-3600. For FTIR, 3 mg of powdered sample and 50 mg of potassium bromide (KBr) were mixed for tablet compression analysis with transmittance at 400–4000 cm^−1, collected using an iS10 FTIR spectrometer (USA). Measurements were performed by averaging 32 scans at 4-cm^−1 resolution (signal-to-noise ratio (S/N) = 50,000). The single-molecule STM imaging experiments were performed under ambient conditions by using a Nanoscope IIIa SPM system (Bruker, USA). 10 μL of the peptide solution was incubated on the surface of freshly cleaved highly oriented pyrolytic graphite (HOPG) at room temperature for 20 min. Then the excess peptide solution was removed from the substrate surface. The STM tips were mechanically made by Ir/Pt wires (20/80). Different STM tips and samples were used in these imaging experiments to ensure reproducibility. […] Zeta potentials of samples were determined using a Zetasizer Nano ZS90 (England) via three tests in a 1-mL sample cell. All CD datum were collected using Chirascan Plus (England) and analyzed at 190-260 nm. […] Pyridine infrared (IR) were measured at 1400–1700 cm^−1 using Thermo Scientific Nicolet 380 (USA). […] The fluorescence signals (I374nm, I394nm) were collected for detecting CMC using the pyrene probe under excitation at 330 nm across various concentrations of peptides.
(In general: CD spectra are sensitive to the conformation of chiral molecules.)

Setting [7] is: 25 μg mL-1, in sterile water, replicate 1 of n = 3.
The mark [8] stands for this setting: 25 μg mL-1, in sterile water, replicate 2 of n = 3.
Setting [9] is: 25 μg mL-1, in sterile water, replicate 3 of n = 3.
Where [10] appears, read: 50 μg mL-1, in sterile water, replicate 1 of n = 3.
The mark [11] stands for this setting: 50 μg mL-1, in sterile water, replicate 2 of n = 3.
Where [12] appears, read: 50 μg mL-1, in sterile water, replicate 3 of n = 3.
[13] abbreviates: 100 μg mL-1, in sterile water, replicate 1 of n = 3.
[14] abbreviates: 100 μg mL-1, in sterile water, replicate 2 of n = 3.
Setting [15] is: 100 μg mL-1, in sterile water, replicate 3 of n = 3.

`Nc1nc(=O)[nH]cc1F` [5-Flucytosine]: in data set [1], the “resistance degree of C. albicans ATCC 10231” value is recorded as “S”, the “resistance degree of C. albicans ATCC 90028” value is recorded as “S” and the “resistance degree of C. albicans ATCC 90029” value is “R”.

For `CCCCCOc1ccc(-c2ccc(-c3ccc(C(=O)N[C@H]4C[C@@H](O)[C@@H](O)NC(=O)[C@@H]5[C@@H](O)[C@@H](C)CN5C(=O)[C@H]([C@@H](C)O)NC(=O)[C@H]([C@H](O)[C@@H](O)c5ccc(O)cc5)NC(=O)[C@@H]5C[C@@H](O)CN5C(=O)[C@H]([C@@H](C)O)NC4=O)cc3)cc2)cc1` [Anidulafungin] ({pTerphenylCO(4''-OnC5H11)}-[Orn(4R-OH,5R-OH)]T[Hyp][hTyr(3S-OH,4S-OH)]T[Pro(3S-OH,4S-Me)]; lactam 1-C), in data set [1], the “resistance degree of C. albicans ATCC 10231” value was “R”, the “resistance degree of C. albicans ATCC 90028” value is given as “S” and the “resistance degree of C. albicans ATCC 90029” value is on record as “S”.

As for `CC[C@H](C)C[C@H](C)CCCCCCCCC(=O)N[C@H]1C[C@@H](O)[C@@H](NCCN)NC(=O)[C@@H]2[C@@H](O)CCN2C(=O)[C@H]([C@H](O)CCN)NC(=O)[C@H]([C@H](O)[C@@H](O)c2ccc(O)cc2)NC(=O)[C@@H]2C[C@@H](O)CN2C(=O)[C@H]([C@@H](C)O)NC1=O` [Caspofungin], in data set [1], the “resistance degree of C. albicans ATCC 10231” value was “S”, the “resistance degree of C. albicans ATCC 90028” value is “S” and the “resistance degree of C. albicans ATCC 90029” value is “S”.

With `OC(Cn1cncn1)(Cn1cncn1)c1ccc(F)cc1F` [Fluconazole], in data set [1], the “resistance degree of C. albicans ATCC 10231” value was “R”, the “resistance degree of C. albicans ATCC 90028” value is reported as “S” and the “resistance degree of C. albicans ATCC 90029” value is “S”.

Consider `CCC(C)n1ncn(-c2ccc(N3CCN(c4ccc(OCC5COC(Cn6cncn6)(c6ccc(Cl)cc6Cl)O5)cc4)CC3)cc2)c1=O` (stereo not shown) [Itraconazole], for which, in data set [1], the “resistance degree of C. albicans ATCC 10231” value is “R”, the “resistance degree of C. albicans ATCC 90028” value is “DD-S” and the “resistance degree of C. albicans ATCC 90029” value was “S”.

Turning to `CCCCCOc1ccc(-c2cc(-c3ccc(C(=O)N[C@H]4C[C@@H](O)[C@@H](O)NC(=O)[C@@H]5[C@@H](O)[C@@H](C)CN5C(=O)[C@H]([C@H](O)CC(N)=O)NC(=O)[C@H]([C@H](O)[C@@H](O)c5ccc(O)c(OS(=O)(=O)O)c5)NC(=O)[C@@H]5C[C@@H](O)CN5C(=O)[C@H]([C@@H](C)O)NC4=O)cc3)no2)cc1` [Micafungin] (X1-[Orn(4R-OH,5R-OH)]T[Hyp][hTyr(3S-OH,4S-OH,3'-OSO3H)][Gln(3R-OH)][Pro(3S-OH,4S-Me)]; lactam 1-C), in data set [1], the “resistance degree of C. albicans ATCC 10231” value is listed as “S”, the “resistance degree of C. albicans ATCC 90028” value is “S” and the “resistance degree of C. albicans ATCC 90029” value is reported as “S”.

As to `CC(=O)[O-].CC(=O)[O-].O.O.O.O.[Ni+2]` [Ni2+, nickel acetate], the “Antimicrobial activity toward E. coli (Figure 7a)” value in data set [2] (setting [7]) came to 6.041; in data set [2] (setting [8]) it was 6.4456; in data set [2] (setting [9]), 6.497; in data set [2] (setting [10]), 5.633; in data set [2] (setting [11]), 6.487; in data set [2] (setting [12]), 6.525. The “Antimicrobial activity toward E. coli (Figure 7a)” value is given as 5.929 in data set [2] (setting [13]), 6.479 in data set [2] (setting [14]) and 6.497 in data set [2] (setting [15]). Besides, the “Antimicrobial activity toward S. aureus (Figure 7b)” value in data set [3] (setting [7]) worked out at 7.5682; in data set [3] (setting [8]), 6.875; in data set [3] (setting [9]), 7.049; in data set [3] (setting [10]), 7.146; in data set [3] (setting [11]), 6.498; in data set [3] (setting [12]) it was 7.364. For the same compound, the “Antimicrobial activity toward S. aureus (Figure 7b)” value in data set [3] (setting [13]) came out at 6.991; in data set [3] (setting [14]), 7.161; in data set [3] (setting [15]), 7.352. The “Antimicrobial activity toward G. vaginalis (Figure 7c)” value is given as 5.431 in data set [4] (10 μg mL-1, in sterile water, replicate 1 of n = 3); 5.477 in data set [4] (10 μg mL-1, in sterile water, replicate 2 of n = 3); 5.4624 in data set [4] (10 μg mL-1, in sterile water, replicate 3 of n = 3); 5.826 in data set [4] (setting [10]); 5.602 in data set [4] (setting [11]); 5.74 in data set [4] (setting [12]). In addition, the “Antimicrobial activity toward G. vaginalis (Figure 7c)” value amounted to 5.13 in data set [4] (setting [13]), 5.041 in data set [4] (setting [14]) and 5.1038 in data set [4] (setting [15]). For the same compound, the “PLC-like activity (Figure 5d)” value in data set [5] (replicate 1 of n = 3) was determined as 0.0001855; in data set [5] (replicate 2 of n = 3), 0.002181; in data set [5] (replicate 3 of n = 3), 0.003085.

As to `C[C@@H](c1ncncc1F)[C@](O)(Cn1cncn1)c1ccc(F)cc1F` [Voriconazole], in data set [1], the “resistance degree of C. albicans ATCC 10231” value is recorded as “S”, the “resistance degree of C. albicans ATCC 90028” value is on record as “S” and the “resistance degree of C. albicans ATCC 90029” value was “S”.

As to IHIHICI [IH-7], the “thermal stability of conformation” value in data set [6] was “changed from random coil at low temperature to α-helix at high temperature”.

The values above are taken from article PMC11224359, “Stable peptide-assembled nanozyme mimicking dual antifungal actions” (Nature Communications, 2024).
